Laboratory results taken from EP0840609B1, “USE OF UNSUBSTITUTED AND SUBSTITUTED N-(PYRROL-1-YL)PYRIDINAMINES AS ANTICONVULSANT AGENTS” (Aventis Pharmaceuticals Inc., priority 1995, dated 1997).
Counter-ions that a name gives are not always drawn.

Columns and labels:
[1] = system: brain membrane sodium channels; conditions: vesicular preparation of male Wistar rat cortices, 25 nM [^3H]batrachotoxin, 60 minutes at 25°C; read-out: Inhibition of [^3H]Batrachotoxin Binding IC50
Male CD-1 mice = assay: Supramaximal electroshock in mice (block of tonic seizure / extensor tonus); format: in vivo; conditions: intraperitoneally; for ED50: read-out: INHIBITION OF SUPRAMAXIMAL ELECTROSHOCK IN MICE ED50
Procedure: This procedure is used as to predict anticonvulsant activity of a test compound in vivo by its ability to block a full tonic seizure induced by a supramaximal electroshock stimulation as an indication of efficacy in preventing grand mal seizures.
Male CD-1 mice (Charles River) weighing 18-30 grams were housed in accordance with the "NIH Guide to Care and Use of Laboratory Animals" (National Institutes of Health Care Publication 85-23, revised 1985) with a 12 hour light/dark cycle and free access to food and water. On the day of testing, animals are brought to the laboratory and randomly assigned to groups of six for the time course experiments and to test groups of ten for the dose-response experiments.
The apparatus used for the test was the Wahlquist Electroshock Stimulator (Model H), which has a power source of 120 volts ac. A current of 15.5 mA lasting for 300 msec was delivered by placing the terminals of the stimulator across the eyes of the animal. This stimulus results in a tonic seizure, defined as a brief period of hindlimb flexion followed by a prolonged period of hindlimb extension. […] Protection is calculated as a normalized percent inhibition relative to a vehicle treated control group.
A time course is performed to determine the peak time of drug action and then a dose response performed at the peak time to determine drug potency. Mice are dosed in a randomized fashion using a total of 4 dose groups and one vehicle control group. The ED50 value and 95% confidence limits are calculated by a computerized Litchfield and Wilcoxon analysis.
Drugs are prepared dissolved in distilled water and, if insoluble a drop of surfactant is added.. Drugs are routinely administered intraperitoneally for this test and given in a dosage volume of 10 ml/kg.

[2] = Mus musculus, ip, dose response at peak time

Structure (SMILES)	IC50 [1]	further results
CCCN(c1ccncc1F)n1ccc2cc(O)ccc21 [1-[Propyl-4-(3-fluoropyridinyl)amino]-1H-indol-5-ol hydrochloride]	70 µM	–
NCCc1cn(Nc2ccncc2)c2ccccc12 [3-Aminoethyl-N-(4-pyridinyl)-1H-indol-1-amine dimaleate]	44 µM	–
CCCN(c1ccncc1)n1cc(CN)c2ccccc21 [3-Aminomethyl-N-propyl-N-(4-pyridinyl)-1H-indol-1-amine dihydrochloride]	10 µM	–
Clc1cn(Nc2ccncc2)c2ccccc12 [3-Chloro-N-(4-pyridinyl)-1H-indol-1-amine salicylate]	11 µM	–
CCCN(c1ccncc1)n1cc(Cl)c2ccccc21 [3-Chloro-N-propyl-N-(4-pyridinyl)-1H-1-amine hydrochloride]	10 µM	–
CCc1cn(N(C)c2ccncc2)c2ccccc12 [3-Ethyl-N-methyl-N-(4-pyridinyl)-1H-indol-1-amine hydrochloride]	12 µM	–
CCCN(c1ccncc1F)n1cccc1 [3-Fluoro-N-propyl-N-(1H-pvrrol-1-yl)-4-pyridinamine hydrochloride]	46 µM	–
Cc1cn(Nc2ccncc2)c2ccc(O)cc12 [3-Methyl-1-(4-pyridinylamino)-1H-indol-5-ol]	20 µM	–
CCCN(c1ccncc1)n1cc(C)c2cc(O)ccc21 [3-Methyl-1-(propyl-4-pyridinylamino)-1H-indol-5-ol hemi-oxalate]	21 µM	–
Cc1cn(Nc2ccncc2)c2ccccc12.O=C(O)C(=O)O [3-Methyl-N-(4-pyridinyl)-1H-indol-1-amine oxalate]	11 µM	ED50 (Male CD-1 mice; [2]): 13 mg/kg
CCCN(c1ccncc1)n1cc(C)c2ccccc21.O=C(O)/C=C\C(=O)O [3-Methyl-N-propyl-N-(4-pvridinyl)-1H-indol-1-amine maleate]	–	INHIBITION OF SUPRAMAXIMAL ELECTROSHOCK IN MICE ED50 (Male CD-1 mice; dose response at peak time): 14.4 mg/kg
Nc1cnccc1Nn1ccc2ccccc21 [4-[N-(1H-indol-1-yl)]-3,4-pyridinamine, 4-[N-(1H-indol-1-yl)]-3,4-pyridinamine hemihydrate]	22 µM	–
CCCN(c1ccncc1)n1ccc2cc(Br)ccc21 [5-Bromo-N-propyl-N-(4-pyridinyl)-1H-indol-1-amine maleate]	14 µM	–
Brc1ccc2c(ccn2Nc2ccncc2)c1 [5-bromo-N-(4-pyridinyl)-1H-indol-1-amine, 5-Bromo-N-(4-pyridinyl)-1H-indol-1-amine maleate]	23 µM	–
NC(=O)N1c2ccccc2C=Cc2ccccc21 [Carbamazepine, reference compound]	94 µM	ED50 (Male CD-1 mice; [2]): 18.6 mg/kg
O=C1NC(=O)C(c2ccccc2)(c2ccccc2)N1 [Diphenylhydantoin, reference compound]	–	ED50 (Male CD-1 mice; [2]): 9.4 mg/kg
CC(C)N(c1ccncc1)n1ccc2ccccc21 [N-(1-Methylethyl)-N-(4-pyridinyl)-1H-indol-1-amine maleate]	9 µM	–

Structure (SMILES)	IC50 [1]	further results
c1ccn(Nc2ccncc2)c1 [N-(1H-pyrrol-1-yl)-4-pyridinamine, N-(1H-Pyrrol-1-yl)-4-pyridinamine]	40 µM	–
CCCN(c1ccncc1)n1c(C)ccc1C.O=C(O)/C=C\C(=O)O [N-(2,5-Dimethyl-1H-pyrrol-1-yl)-N-(n-propyl)-4-pyridinamine maleate]	–	ED50 (Male CD-1 mice; [2]): 50.1 mg/kg
CC(C)CN(c1ccncc1)n1ccc2ccccc21 [N-(2-Methylpropyl)-N-(4-pyridinyl)-1H-indol-1-amine maleate]	9 µM	–
c1ccc(Nn2ccc3ccccc32)nc1 [N-(2-pyridinyl)-1H-indol-1-amine, N-(2-Pyridinyl)-1H-indol-1-amine]	12 µM	–
Clc1cnccc1Nn1ccc2ccccc21 [N-(3-Chloro-4-pyridinyl)-1H-indol-1-amine hydrochloride]	14 µM	–
Cc1cn(Nc2ccncc2Cl)c2ccccc12 [N-(3-Chloro-4-pyridinyl)-3-methyl-1H-indol-1-amine hydrochloride]	29 µM	–
CCCN(c1ccncc1Cl)n1cc(C)c2ccccc21 [N-(3-Chloro-4-pyridinyl)-3-methyl-N-propyl-1H-indol-1-amine]	44 µM	–
CCCN(c1ccncc1Cl)n1ccc2ccccc21 [N-(3-Chloro-4-pyridinyl)-N-propyl-1H-indol-1-amine hydrochloride]	32 µM	–
Cc1cn(Nc2ccncc2F)c2ccccc12 [N-(3-Fluoro-4-pyridinyl)-3-methyl-1H-indol-1-amine]	42 µM	–
CCCN(c1ccncc1F)n1cc(C)c2ccccc21 [N-(3-Fluoro-4-pyridinyl)-N-propyl-3-methyl-1H-indol-1-amine hydrochloride]	31 µM	inhibition at 30 mg/kg (Male CD-1 mice; Mus musculus, ip, @ 30 mpk, read-out: Inhibition of supramaximal electroshock (protection, normalized percent inhibition)): 50%; inhibition at 60 mg/kg (Male CD-1 mice; Mus musculus, ip, @ 60 mpk, read-out: Inhibition of supramaximal electroshock (protection, normalized percent inhibition)): 50%
Cc1cnccc1Nn1ccc2ccccc21 [N-(3-Methyl-4-pyridinyl)-1H-indol-1-amine]	21 µM	–
c1cncc(Nn2ccc3ccccc32)c1 [N-(3-pyridinyl)-1H-indol-1-amine, N-(3-Pyridinyl)-1H-indol-1-amine]	12 µM	–
c1ccc2c(c1)ccn2Nc1ccncc1 [N-(4-pyridinyl)-1H-indol-1-amine, N-(4-Pyridinyl)-1H-indol-1-amine maleate]	18 µM	–
CCN(c1ccncc1)n1cccc1 [N-Ethyl-N-(1H-pyrrol-1-yl)-4-pyridinamine hydrochloride]	86 µM	–
CCCN(c1ccncc1)n1cccc1 [N-Propyl-N-(1H-pyrrol-1-yl)-4-pyridinamine hydrochloride]	66 µM	–
CCCN(c1ccncc1)n1ccc2ccccc21.Cl [N-Propyl-N-(4-pyridinyl)-1H-indol-1-amine hydrochloride]	5 µM	ED50 (Male CD-1 mice; [2]): 14.2 mg/kg
